These results are taken from patent publication US20080146555A1, “Uses of Kinase Inhibitors and Compositions Thereof” (GPC Biotech, Inc, priority 2004, published 2008).

The structures appear in SMILES notation. Counter-ions that a name gives are not always drawn. Like-named read-outs stand apart in the source and are kept apart here.

One test concerns the target Cdk7 (Homo sapiens, UniProt P50613). Kind of test: Cdk7 inhibition. The format is biochemical. From the text:
Further inhibition results for subject compounds of the invention against other CDKs and further kinases are shown in Table 5, Table II and described in Example 6.
Table 3, Table 4, Table 5 and Table II show the results obtained for inhibition of a broad range of such kinases for subject compounds of the invention.

For another test, the target named is T1, GSK3β (Homo sapiens, UniProt P49841).
T1 construct: purchased Upstate 14-306
T1 sequence (P49841 whole entry): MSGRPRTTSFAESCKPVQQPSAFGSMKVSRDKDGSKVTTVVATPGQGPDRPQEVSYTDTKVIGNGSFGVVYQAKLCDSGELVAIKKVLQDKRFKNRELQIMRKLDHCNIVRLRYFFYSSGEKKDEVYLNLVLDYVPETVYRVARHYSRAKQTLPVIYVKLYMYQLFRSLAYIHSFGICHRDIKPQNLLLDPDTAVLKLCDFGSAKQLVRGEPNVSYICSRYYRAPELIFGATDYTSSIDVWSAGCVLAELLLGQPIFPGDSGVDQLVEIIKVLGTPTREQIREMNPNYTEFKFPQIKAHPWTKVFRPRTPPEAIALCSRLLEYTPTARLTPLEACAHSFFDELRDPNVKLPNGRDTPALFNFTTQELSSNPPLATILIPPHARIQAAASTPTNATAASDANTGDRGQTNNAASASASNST
Kind of test: GSK3β kinase assay. The format is biochemical. Here is the method:
• 1. Reaction Buffer: 8 mM MOPS, pH 7.0, 0.2 mM EDTA, 110 mM magnesium acetate. • 2. GSK3β, active: 5-40 ng per assay point. Dilute to 0.5-4 ng/μl in Reaction Buffer containing 0.03% Brij-35. • 3. Phospho-Glycogen Synthase Peptide-2 (Catalog #12-241): Prepare a 250 μM stock. Use 10 μl per assay point for a final assay concentration of 62.5 μM per assay point. • 4. [γ-^32P]ATP: Stock 1 mCi/100 μl (3000 Ci/mmol, obtained from Perkin Elmer, Cat. # BLU002A). Make 10 μl aliquots (100 μCi/vial). Before starting the assay, dilute an aliquot to 1 μCi/μl with 90 μl of 75 mM magnesium chloride and 500 μM unlabeled ATP in 20 mM MOPS, pH 7.2, 25 mM β-glycerol phosphate, 5 mM EGTA, 1 mM sodium orthovanadate, 1 mM dithiothreitol.
• 1. Add 10 μl of Reaction Buffer per assay. • 2. Add 10 μl of substrate peptide [final assay concentration of 62.5 μM]. • 3. Add 10 μl of GSK3β, active [5-40 ng per assay]. • 4. Add 10 μl of the diluted [^32P]ATP mixture. • 5. Incubate for 30 minutes at 30° C. • 6. Spot 25 μl onto the center of a 2 cm×2 cm P81 paper square. • 7. Wash the assay squares five times with 0.75% phosphoric acid. • 8. Wash the assay squares once with acetone. • 9. Transfer the assay squares to vial and add 5 ml scintillation cocktail. • 10. Read in scintillation counter. Compare cpm of enzyme samples to cpm of control samples that contain no enzyme (background control).

The target in the next test is T2, MKK6 (Homo sapiens, UniProt P52564).
T2 construct: purchased Upstate 14-303
T2 sequence (P52564 1-334): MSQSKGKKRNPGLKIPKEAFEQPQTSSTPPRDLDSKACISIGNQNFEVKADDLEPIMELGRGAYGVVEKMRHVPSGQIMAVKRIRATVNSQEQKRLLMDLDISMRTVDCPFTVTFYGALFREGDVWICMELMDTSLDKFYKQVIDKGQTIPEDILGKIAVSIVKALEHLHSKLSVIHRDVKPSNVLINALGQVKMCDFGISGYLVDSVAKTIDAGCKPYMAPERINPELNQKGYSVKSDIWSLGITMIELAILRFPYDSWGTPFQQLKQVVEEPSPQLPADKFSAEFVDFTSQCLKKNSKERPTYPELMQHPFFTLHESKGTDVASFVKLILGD
The experiment in a line: MKK6 kinase assay. The format is biochemical. Here is the method: • 1. Reaction Buffer (RB): 50 mM Tris-HCl, pH 7.5, 0.1 mM EGTA, 0.1% 2-mercaptoethanol, 0.1 mM sodium orthovanadate, 10 mM MgAc. • 2. Magnesium/ATP Cocktail (Catalog #20-113): 500 μM cold ATP and 75 mM magnesium chloride in 20 mM MOPS, pH 7.2, 25 mM β-glycerol phosphate, 5 mM EGTA, 1 mM sodium orthovanadate, 1 mM dithiothreitol. • 3. MKK6/SKK3, active: Dilute to 10 ng/μl with Reaction Buffer containing 0.03% Brij-35. Use 5 μl (50 ng) per assay point. • 4. p38a/SAPK2a, unactive (Catalog #14-252): Use 4 μl per assay point. • 5. Myelin Basic Protein (MBP, Catalog #13-104): Prepare a 2 mg/ml stock solution in 20 mM MOPS, pH 7.2, 25 mM β-glycerol phosphate, 5 mM EGTA, 1 mM sodium orthovanadate, 1 mM dithiothreitol. Use 10 μl per assay point. • 6. [γ-^32P]ATP: Stock 1 mCi/100 μl (3000 Ci/mmol, obtained from Perkin Elmer, Catalog #BLU002A). Make 10 μl aliquots (100 μCi/vial). Before starting the assay, dilute the Magnesium/ATP Cocktail 1:1 with sterile, distilled water. Then dilute an aliquot of [γ-^32P]ATP to 1 μCi/μl with 90 μl of the diluted Magnesium/ATP Cocktail. […]
• 1. On ice, add 1 μl RB to a microcentrifuge tube. • 2. Add 4 μl (2 μg) p38α/SAPK2a, unactive. • 3. Add 10 μl of Magnesium/ATP Cocktail. • 4. Add 5 μl (50 ng) MKK6/SKK3, active. • 5. Incubate for 30 minutes shaking at 30° C. • 6. Place on ice and proceed to Stage Two.
• 1. Remove 10 μL of the mixture prepared in Stage One and add to a new microcentrifuge tube. • 2. Add 20 μl of RB. • 3. Add 10 μl of MBP. • 4. Add 10 μl of the diluted [γ-^32P] ATP mixture (1 μCi/μl). • 5. Incubate for 15 minutes shaking at 30° C. • 6. Spot 40 μl on a 2 cm×2 cm P81 paper. • 7. Wash assay squares three times with 0.75% phosphoric acid for 5 minutes per wash. • 8. Wash assay squares once with acetone for five minutes. • 9. Transfer the assay squares to a scintillation vial and add 5 ml scintillation cocktail. • 10. Read in scintillation counter. Compare cpm of enzyme samples to cpm of control samples that contain no active enzyme (background control).

Another test concerns 1A9-PTX10. Kind of test: SRB cytotoxicity, tubulin mutated paclitaxel-resistant cells. The format is cell-based, human. The following applies: for IC50: Homo sapiens, 1A9/ptx-10, 72 h, SRB; for RR (relative resistance) 1A9-PTX10 vs 1A9: ratio of mean IC50 resistant/sensitive. Here is the method: In these experiments, the P-glycoprotein expressing NCI-Adr resistant subline (Vickers et al., 1989. Mol Endocrinology 3 (1):157-164) was used. […] Briefly, cells were plated in 96 well dishes 24 hours prior to compound addition. Where noted, they were exposed to verapamil for 4 hours prior to compound addition and then throughout the treatment period (72 hours). The assay was terminated with the addition of cold TCA to a final concentration of 10% and the plates were incubated for one hour at 4° C. The plates were then washed 5 times with water and 100 μl of a Sulforhodamine B solution (4%) was added to each well. The plate was then incubated for 10 minutes at room temperature before removal of unbound dye by washing with 1% acetic acid.
The tubulin mutated, paclitaxel-resistant human ovarian carcinoma cell line 1A9-PTX10 and its parental paclitaxel-sensitive cell line 1A9 were derived from the A2780 human ovarian carcinoma cell line (J Biol Chem (1997) 272, 17118-17124).

Setting [1] is: kinase panel, 10 μM ATP, read-out: GSK3β IC50.
The mark [2] stands for this setting: read-out: GSK3B Inhibition (IC50).
[3] abbreviates: kinase panel, 10 μM ATP, read-out: MAPK 6 / MKK6 IC50.
Setting [4] is: read-out: MAP2K6 Inhibition (IC50).

Chain of Cdk7 (P50613 whole entry, species assumed): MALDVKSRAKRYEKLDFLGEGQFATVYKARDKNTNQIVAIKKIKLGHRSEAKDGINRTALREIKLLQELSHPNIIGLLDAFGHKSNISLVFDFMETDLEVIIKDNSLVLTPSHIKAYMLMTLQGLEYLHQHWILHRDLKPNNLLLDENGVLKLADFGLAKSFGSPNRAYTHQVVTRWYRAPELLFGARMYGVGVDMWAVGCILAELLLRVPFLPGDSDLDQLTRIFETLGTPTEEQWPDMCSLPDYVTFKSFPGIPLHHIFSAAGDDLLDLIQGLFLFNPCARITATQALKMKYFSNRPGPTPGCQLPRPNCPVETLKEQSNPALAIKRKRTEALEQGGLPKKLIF
Chain of Cdk7 (P51946 whole entry partner, species assumed): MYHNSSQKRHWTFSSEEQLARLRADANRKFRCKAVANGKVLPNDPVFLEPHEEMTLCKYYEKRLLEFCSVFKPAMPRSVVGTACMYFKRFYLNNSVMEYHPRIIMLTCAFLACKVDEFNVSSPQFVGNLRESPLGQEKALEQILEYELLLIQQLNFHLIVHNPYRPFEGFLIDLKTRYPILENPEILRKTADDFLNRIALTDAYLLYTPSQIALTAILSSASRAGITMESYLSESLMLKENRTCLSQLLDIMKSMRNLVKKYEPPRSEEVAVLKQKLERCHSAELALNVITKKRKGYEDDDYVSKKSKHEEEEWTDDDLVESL
Chain of Cdk7 (P51948 whole entry partner, species assumed): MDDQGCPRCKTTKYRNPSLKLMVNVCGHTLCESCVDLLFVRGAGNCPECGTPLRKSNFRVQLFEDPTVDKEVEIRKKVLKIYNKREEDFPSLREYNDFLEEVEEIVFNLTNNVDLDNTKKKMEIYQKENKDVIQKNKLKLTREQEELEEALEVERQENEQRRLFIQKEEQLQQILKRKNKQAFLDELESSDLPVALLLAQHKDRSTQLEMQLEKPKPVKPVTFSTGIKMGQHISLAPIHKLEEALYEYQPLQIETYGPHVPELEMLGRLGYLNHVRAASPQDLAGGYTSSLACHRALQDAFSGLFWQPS

As for `CC(C)N1CCN(C(=O)COc2ccc(-c3n[nH]c4c3C(=O)c3c(NC(=O)NN5CCOCC5)cccc3-4)cc2)CC1` [Compound A37], the IC50 is under 0.5 µM at Cdk7; under 0.003 µM at GSK3β (setting [1]); under 0.005 µM at GSK3β (setting [2]); 0.01 to 0.1 µM at MKK6 (setting [3]); under 0.5 µM at MKK6 (setting [4]); 0.0443 µM in the test on 1A9-PTX10. Besides, the “RR (relative resistance) 1A9-PTX10 vs 1A9” value in the test with 1A9-PTX10 is given as 3.3.

As to `COCCN1CCN(Cc2ccc(-c3n[nH]c4c3C(=O)c3c(NC(=O)NN5CCOCC5)cccc3-4)cc2)CC1` [Compound B16, N-[3-(4-{[4-(2-methoxyethyl)piperazinyl]methyl}phenyl)-4-oxoindeno[2,3-d]pyrazol-5-yl](morpholin-4-ylamino)carboxamide dihydrochloride], the IC50 against Cdk7 was under 0.05 µM; on GSK3β (setting [1]), under 0.1 µM; on GSK3β (setting [2]), under 0.005 µM; on MKK6 (setting [3]), under 0.1 µM; at MKK6 (setting [4]), under 0.1 µM; with 1A9-PTX10, 0.025 µM. Moreover, the “RR (relative resistance) 1A9-PTX10 vs 1A9” value in the test with 1A9-PTX10 is given as 2.3.
